The values that follow come from PMC4336611 (Chemistry & biology, 2015).

The target in the experiment is LPA2 (Homo sapiens, UniProt Q9HBW0). The experiment is classed as cell-based.
Chain of LPA2 (Q9HBW0 whole entry): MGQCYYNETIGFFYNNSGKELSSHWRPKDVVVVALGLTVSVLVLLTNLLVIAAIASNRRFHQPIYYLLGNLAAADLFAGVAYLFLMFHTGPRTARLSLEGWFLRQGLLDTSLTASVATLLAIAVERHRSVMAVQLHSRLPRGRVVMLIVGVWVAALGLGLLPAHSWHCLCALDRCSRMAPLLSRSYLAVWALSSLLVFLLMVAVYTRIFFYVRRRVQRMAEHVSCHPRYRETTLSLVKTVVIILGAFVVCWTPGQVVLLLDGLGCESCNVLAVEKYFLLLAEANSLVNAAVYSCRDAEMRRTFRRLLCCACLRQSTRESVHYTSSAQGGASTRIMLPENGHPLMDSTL

Turning to `O=C(O)c1ccccc1S(=O)(=O)NCCCCN1C(=O)c2cccc3cccc(c23)C1=O` [DBIBB, 2-[4-(1,3-Dioxo-1H,3H-benzo[de]isoquinolin-2-yl)butylsulfamoyl] benzoic acid], the 50% effective concentration (EC50) was roughly 0.1 µM.
